The series in a line: recombinant barcode read abundance after kanamycin selection (control-corrected) (log10(CPM+1)); higher = more efficient recombination; sequences stand for … in AGTGCAGAGAAAATCGGCCAGTTTTCTCTGCCTGCAGTCCGCATGCCGT…AGATTTATGCAGCGGACTGCCTTTCTCCCAAAGTGATAAACCGGACAGTATCATGGACCGGTTTTCCCGGTAATCCGTATTTGCAAGGTTGGTTTCACT; site = the 11-nt target. A digest of the protocol: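 Recombination efficiency comes from barcode counts at recombinant junctions, converted to counts per million, averaged and corrected against the control. Values appear as log10(CPM+1). They were obtained from a pooled E. coli screen in which each oligo paired a target with an IS621 bridge RNA target-binding loop, and cells were plated in duplicate on chloramphenicol/ampicillin LB agar or on chloramphenicol/ampicillin/kanamycin with 0.1 mM IPTG.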
Consider “GCTCGTGCTTGGGTTCTAACCTGTTGCCT (site GCCCGTGCTAG)”, for which the “recombinant barcode read abundance (log10)” value is 0.278.

As for “GCTCGTGCTTGGGTTCTAACCTGTTGCCT (site GCGCGTGCTAG)”, the “recombinant barcode read abundance (log10)” value was determined as 0.238.

For the sequence “GCTCGTGCTTGGGTTCTAACCTGTTGCCT (site GCTCGTGCTAG)”, the “recombinant barcode read abundance (log10)” value was 1.1.

Regarding “GCTGAGGCTTGGGTTCTAACCTGTTGCCA (site CTCTGCTCTGA)”, the “recombinant barcode read abundance (log10)” value was determined as 0.165.

Regarding “GCTGAGGCTTGGGTTCTAACCTGTTGCCA (site GCTGAGGCTTG)”, the “recombinant barcode read abundance (log10)” value stood at 0.636.

Regarding “GCTGAGTCTTGGGTTCTAACCTGTTGCTA (site AGGCCCACTAT)”, the “recombinant barcode read abundance (log10)” value stood at 0.0625.

For the sequence “GCTGAGTCTTGGGTTCTAACCTGTTGCTA (site GCTGAGTCTTA)”, the “recombinant barcode read abundance (log10)” value amounted to 2.08.

Turning to “GCTGCTCCTTGGGTTCTAACCTGTTGCGT (site GCGGGTCCTAC)”, the “recombinant barcode read abundance (log10)” value is 0.0749.

As to “GCTGCTCCTTGGGTTCTAACCTGTTGCGT (site GCTGCTCCTAC)”, the “recombinant barcode read abundance (log10)” value was found to be 1.82.

As for “GCTGGGCCTTGGGTTCTAACCTGTTGCGA (site GATGGGCCTAC)”, the “recombinant barcode read abundance (log10)” value came to 0.0848.

Turning to “GCTGGGCCTTGGGTTCTAACCTGTTGCGA (site GCTGGGCCTTC)”, the “recombinant barcode read abundance (log10)” value worked out at 2.17.

For the sequence “GCTGTATCTTGGGTTCTAACCTGTTGCCT (site ACTGTATCTAG)”, the “recombinant barcode read abundance (log10)” value was determined as 0.288.

On to “GCTGTATCTTGGGTTCTAACCTGTTGCCT (site CCTGTATCTAG)”, for which the “recombinant barcode read abundance (log10)” value stood at 0.163.

“GCTGTATCTTGGGTTCTAACCTGTTGCCT (site GCTGTATCTAG)”: the “recombinant barcode read abundance (log10)” value is 0.612.

For “GCTGTATCTTGGGTTCTAACCTGTTGCCT (site TCTGTATCTAG)”, the “recombinant barcode read abundance (log10)” value was found to be 0.0648.

On to “GCTTCTTCTTGGGTTCTAACCTGTTGCCT (site GATTCTTCTAG)”, for which the “recombinant barcode read abundance (log10)” value was 0.398.

As for “GCTTCTTCTTGGGTTCTAACCTGTTGCCT (site GCTTCTTCTAG)”, the “recombinant barcode read abundance (log10)” value came to 0.0876.

For “GCTTCTTCTTGGGTTCTAACCTGTTGCCT (site GGTTCTTCTAG)”, the “recombinant barcode read abundance (log10)” value worked out at 0.0632.

Take “GCTTCTTCTTGGGTTCTAACCTGTTGCCT (site GTTTCTTCTAG)”: the “recombinant barcode read abundance (log10)” value amounted to 0.0974.

As to “GCTTGAGCTTGGGTTCTAACCTGTTGCCG (site CCTTGAGCTCA)”, the “recombinant barcode read abundance (log10)” value stood at 0.0954.

Turning to “GCTTGAGCTTGGGTTCTAACCTGTTGCCG (site GCTTGAGCTCG)”, the “recombinant barcode read abundance (log10)” value is 0.344.

Take “GCTTGAGCTTGGGTTCTAACCTGTTGCCT (site GCATGAGCTAG)”: the “recombinant barcode read abundance (log10)” value stood at 0.421.

For the sequence “GCTTGAGCTTGGGTTCTAACCTGTTGCCT (site GCCTGAGCTAG)”, the “recombinant barcode read abundance (log10)” value worked out at 0.158.

In the case of “GCTTGAGCTTGGGTTCTAACCTGTTGCCT (site GCGTGAGCTAG)”, the “recombinant barcode read abundance (log10)” value is 0.139.

In the case of “GCTTGAGCTTGGGTTCTAACCTGTTGCCT (site GCTTGAGCTAG)”, the “recombinant barcode read abundance (log10)” value stood at 0.589.

On to “GCTTGGACTTGGGTTCTAACCTGTTGCCT (site GCTTGGACTAG)”, for which the “recombinant barcode read abundance (log10)” value was determined as 0.467.

Take “GCTTGGACTTGGGTTCTAACCTGTTGCCT (site GCTTTGACTAG)”: the “recombinant barcode read abundance (log10)” value amounted to 0.0492.

As to “GCTTGTTCTTGGGTTCTAACCTGTTGCCT (site ACTTGTTCTAG)”, the “recombinant barcode read abundance (log10)” value is 0.0443.

As to “GCTTGTTCTTGGGTTCTAACCTGTTGCCT (site CCTTGTTCTAG)”, the “recombinant barcode read abundance (log10)” value came to 0.501.

Regarding “GCTTGTTCTTGGGTTCTAACCTGTTGCCT (site GCTTGTTCTAG)”, the “recombinant barcode read abundance (log10)” value came out at 0.233.

Consider “GCTTGTTCTTGGGTTCTAACCTGTTGCCT (site TCTTGTTCTAG)”, for which the “recombinant barcode read abundance (log10)” value is 0.11.

Turning to “GCTTTACCTTGGGTTCTAACCTGTTGCCT (site ACTTTACCTAG)”, the “recombinant barcode read abundance (log10)” value is 0.0836.

Regarding “GCTTTACCTTGGGTTCTAACCTGTTGCCT (site CCTTTACCTAG)”, the “recombinant barcode read abundance (log10)” value amounted to 0.019.

For the sequence “GCTTTACCTTGGGTTCTAACCTGTTGCCT (site GCTTTACCTAG)”, the “recombinant barcode read abundance (log10)” value amounted to 0.456.

Regarding “GCTTTACCTTGGGTTCTAACCTGTTGCCT (site TCTTTACCTAG)”, the “recombinant barcode read abundance (log10)” value turned out to be 0.0534.

Regarding “GCTTTGCCTTGGGTTCTAACCTGTTGCCT (site ACTTTCCCTAG)”, the “recombinant barcode read abundance (log10)” value was determined as 0.0475.

For “GCTTTGCCTTGGGTTCTAACCTGTTGCCT (site GCTTTGCCTAG)”, the “recombinant barcode read abundance (log10)” value came out at 0.409.

In the case of “GGAACGTCTTGGGTTCTAACCTGTTGCTT (site GGAACCTCTAA)”, the “recombinant barcode read abundance (log10)” value came out at 0.0353.

On to “GGAACGTCTTGGGTTCTAACCTGTTGCTT (site GGAACGTCTAA)”, for which the “recombinant barcode read abundance (log10)” value is 1.06.

With “GGAACTACTTGGGTTCTAACCTGTTGCAC (site GGAACTACTGT)”, the “recombinant barcode read abundance (log10)” value was found to be 0.838.

For “GGAACTACTTGGGTTCTAACCTGTTGCAC (site TTGCTAGCTCC)”, the “recombinant barcode read abundance (log10)” value stood at 0.114.

With “GGAAGCCCTTGGGTTCTAACCTGTTGCTA (site AACTAAGCTAG)”, the “recombinant barcode read abundance (log10)” value was 0.0242.

For “GGAAGCCCTTGGGTTCTAACCTGTTGCTA (site GGAAGCCCTTA)”, the “recombinant barcode read abundance (log10)” value worked out at 0.694.

As to “GGAAGTTCTTGGGTTCTAACCTGTTGCCT (site GAAAGTTCTAG)”, the “recombinant barcode read abundance (log10)” value turned out to be 0.0496.

Turning to “GGAAGTTCTTGGGTTCTAACCTGTTGCCT (site GCAAGTTCTAG)”, the “recombinant barcode read abundance (log10)” value worked out at 0.0862.

As to “GGAAGTTCTTGGGTTCTAACCTGTTGCCT (site GGAAGTTCTAG)”, the “recombinant barcode read abundance (log10)” value stood at 0.732.

As to “GGAAGTTCTTGGGTTCTAACCTGTTGCCT (site GTAAGTTCTAG)”, the “recombinant barcode read abundance (log10)” value is 0.754.

With “GGAATACCTTGGGTTCTAACCTGTTGCCT (site GGAATACCTAG)”, the “recombinant barcode read abundance (log10)” value amounted to 1.36.

“GGAATACCTTGGGTTCTAACCTGTTGCCT (site GGAATCCCTAG)”: the “recombinant barcode read abundance (log10)” value amounted to 0.157.

Consider “GGAATACCTTGGGTTCTAACCTGTTGCCT (site GGAATGCCTAG)”, for which the “recombinant barcode read abundance (log10)” value turned out to be 0.0994.

With “GGAATACCTTGGGTTCTAACCTGTTGCCT (site GGAATTCCTAG)”, the “recombinant barcode read abundance (log10)” value stood at 0.0368.

As for “GGAATGCCTTGGGTTCTAACCTGTTGCCT (site GGAATACCTAG)”, the “recombinant barcode read abundance (log10)” value was 0.79.

On to “GGAATGCCTTGGGTTCTAACCTGTTGCCT (site GGAATCCCTAG)”, for which the “recombinant barcode read abundance (log10)” value is 0.0574.

As for “GGAATGCCTTGGGTTCTAACCTGTTGCCT (site GGAATGCCTAG)”, the “recombinant barcode read abundance (log10)” value turned out to be 0.975.

For “GGAATGCCTTGGGTTCTAACCTGTTGCCT (site GGAATTCCTAG)”, the “recombinant barcode read abundance (log10)” value is 0.0966.

Turning to “GGAATGTCTTGGGTTCTAACCTGTTGCCT (site GAAATGTCTAG)”, the “recombinant barcode read abundance (log10)” value stood at 0.344.

“GGAATGTCTTGGGTTCTAACCTGTTGCCT (site GCAATGTCTAG)”: the “recombinant barcode read abundance (log10)” value amounted to 0.0847.

For the sequence “GGAATGTCTTGGGTTCTAACCTGTTGCCT (site GGAATGTCTAG)”, the “recombinant barcode read abundance (log10)” value stood at 2.09.

With “GGAATGTCTTGGGTTCTAACCTGTTGCCT (site GTAATGTCTAG)”, the “recombinant barcode read abundance (log10)” value was 0.0368.

The record behind these values is the supplement of paper PMC11208160.
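Note: IS621 recombinase and bridge RNA in Escherichia coli cells.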
